The target of one series is T1, hPDE2A (Homo sapiens, UniProt O00408).
T1 construct: made in house; host or cells: Sf9 insect cells (baculovirus)
The series is described as follows: In vitro assay PDE2A (SPA, 3H-cGMP). It counts as biochemical. The following applies: for Emax: read-out: hPDE2A Emax. The method, then: Human recombinant PDE2A (hPDE2A) was expressed in Sf9 cells using a recombinant rPDE10A baculovirus construct. Cells were harvested after 48 h of infection and the hPDE2A protein was purified by metal chelate chromatography on Ni-sepharose 6FF. Tested compounds were dissolved and diluted in 100% DMSO to a concentration 100 fold of the final concentration in the assay. Compound dilutions (0.4 μl) were added in 384 well plates to 20 μl of incubation buffer (50 mM Tris pH 7.8, 8.3 mM MgCl2, 1.7 mM EGTA). 10 μl of hPDE2A enzyme in incubation buffer was added and the reaction was started by addition of 10 μl substrate to a final concentration of 10 μM cGMP and 0.01 μCi ^3H-cGMP. The reaction was incubated for 45 minutes at room temperature. […] After sedimentation of the beads during 30 minutes the radioactivity was measured in a Perkin Elmer Topcount scintillation counter and results were expressed as cpm. For blanc values the enzyme was omitted from the reaction and replaced by incubation buffer. Control values were obtained by addition of a final concentration of 1% DMSO instead of compound.

For another series, the system named is hPDE3B. The series is described as follows: In vitro assay PDE3 (SPA, 3H-cAMP). The format is biochemical, human. More on the design: hPDE3B Emax: unit not given here. The following applies: for hPDE3B pIC50: 0.4 μM cAMP substrate.
Another series addresses hPDE10A2 (Homo sapiens, UniProt Q9Y233). The series is described as follows: biochemical. As to conditions: for IC50: 60 nM cAMP substrate, read-out: hPDE10A2 pIC50 (converted); for Emax: read-out: hPDE10A2 Emax. As for the experimental part:
Rat recombinant PDE10A (rPDE10A2) was expressed in Sf9 cells using a recombinant rPDE10A baculovirus construct. Cells were harvested after 48 h of infection and the rPDE10A protein was purified by metal chelate chromatography on Ni-sepharose 6FF. Tested compounds were dissolved and diluted in 100% DMSO to a concentration 100 fold of the final concentration in the assay. Human recombinant PDE10A […] was expressed in Sf9 cells using a recombinant hPDE10A baculovirus that was made and amplified in house. Cells were harvested after 72 h of infection and the hPDE10A protein was purified by metal chelate chromatography on Ni-sepharose. Compound dilutions (0.4 μl) were added in 384 well plates to 20 μl of incubation buffer (50 mM Tris pH 7.8, 8.3 mM MgCl2, 1.7 mM EGTA). […] of rPDE10A or hPDE10A enzyme in incubation buffer was added and the reaction was started by addition of 10 μl substrate to a final concentration of 60 nM cAMP and 0.008 μCi ^3H-cAMP. The reaction was incubated for 60 minutes at room temperature. […] After sedimentation of the beads during 30 minutes the radioactivity was measured in a Perkin Elmer Topcount scintillation counter and results were expressed as cpm. For blanc values the enzyme was omitted from the reaction and replaced by incubation buffer. Control values were obtained by addition of a final concentration of 1% DMSO instead of compound.

A further series concerns the target T2, PDE2A (Rattus norvegicus, UniProt Q01062).
T2 construct: from tissue; host or cells: rat brain striatal sections (ex vivo)
T2 sequence (Q01062 1-928): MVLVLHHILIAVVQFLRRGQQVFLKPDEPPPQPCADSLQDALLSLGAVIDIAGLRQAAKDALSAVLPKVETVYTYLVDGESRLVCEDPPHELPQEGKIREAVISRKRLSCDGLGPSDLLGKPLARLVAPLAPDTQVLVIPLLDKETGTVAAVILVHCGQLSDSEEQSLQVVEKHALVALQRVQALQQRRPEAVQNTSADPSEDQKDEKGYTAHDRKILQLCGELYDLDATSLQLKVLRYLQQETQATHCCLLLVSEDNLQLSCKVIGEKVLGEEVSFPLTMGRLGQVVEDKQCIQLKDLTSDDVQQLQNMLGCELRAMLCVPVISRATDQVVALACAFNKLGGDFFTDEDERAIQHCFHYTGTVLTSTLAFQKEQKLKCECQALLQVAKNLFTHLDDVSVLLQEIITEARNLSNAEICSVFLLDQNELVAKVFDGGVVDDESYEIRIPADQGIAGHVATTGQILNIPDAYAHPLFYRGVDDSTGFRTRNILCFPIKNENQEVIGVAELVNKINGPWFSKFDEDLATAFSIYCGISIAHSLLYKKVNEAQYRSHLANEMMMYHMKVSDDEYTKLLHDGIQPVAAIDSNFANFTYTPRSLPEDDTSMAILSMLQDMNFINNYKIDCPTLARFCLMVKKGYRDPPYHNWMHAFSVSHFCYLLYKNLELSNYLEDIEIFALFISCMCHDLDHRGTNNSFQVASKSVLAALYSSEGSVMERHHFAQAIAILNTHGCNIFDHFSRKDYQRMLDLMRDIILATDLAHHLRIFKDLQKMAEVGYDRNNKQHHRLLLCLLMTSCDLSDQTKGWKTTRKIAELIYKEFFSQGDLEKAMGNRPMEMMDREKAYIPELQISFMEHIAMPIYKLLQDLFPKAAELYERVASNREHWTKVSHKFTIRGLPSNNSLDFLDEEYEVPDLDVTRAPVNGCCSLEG
Kind of series: PDE2 occupancy by ex-vivo autoradiography with [3H]B-17a. The format is in vivo. As to conditions: for receptor occupancy at 10 mg/kg / ED50: rat; for ED50: read-out: PDE occupancy ED50, route PO (oral), male Wistar rats, dose producing 50% occupancy. The method, then: PDE2 Occupancy by Test Compounds Methods
Brains were immediately removed from the skull and rapidly frozen in dry-ice cooled 2-methylbutane (−40° C.).
After thawing, sections were dried under a cold stream of air and incubated for one minute with 30 nM [^3H]B-17a in Tris-HCl (50 mM, pH7.4) containing 0.3% BSA. Brain sections from drug-treated and vehicle-treated animals were incubated in parallel. […] After incubation, the excess of [^3H]B-17a was washed off in ice-cold buffer 2 times 10 minutes, followed by a quick dip in distilled water. The sections were then dried under a stream of cold air.
Brain sections were loaded in a β-imager (Biospace, Paris) for 4 h and radioactivity emerging from delineated brain area was quantified using the Beta vision program (Biospace, Paris). Specific binding was determined as the difference between total binding in the striatum and non-specific binding in the cerebellum. Percentage receptor occupancy of the drug administered to the animal corresponded to 100% minus the percentage receptor labeled in the treated animal. For the determination of ED50-values, the percentage of receptor occupancy was plotted against dose and the sigmoidal log dose-effect curve of best fit was calculated by non-linear regression analysis, using the GraphPad Prism program.

Where [1] appears, read: route SC (subcutaneous), 10 mg/kg, male Wistar rats, striatum, percentage occupancy, read-out: PDE2 occupancy at 10 mg/kg.
Where [2] appears, read: 10 μM cGMP substrate, read-out: hPDE2A pIC50 (converted).
Where [3] appears, read: po, read-out: PDE2 occupancy at 10 mg/kg, route PO (oral), 10 mg/kg, male Wistar rats, striatum, percentage occupancy.

Several values for one entry are separate records, joined by “and”; a condition that tells them apart may be missing. Identical values can stand only once. Like-named read-outs stand apart in the source and are kept apart here.

hPDE10A2, sequence (Q9Y233 267-1055): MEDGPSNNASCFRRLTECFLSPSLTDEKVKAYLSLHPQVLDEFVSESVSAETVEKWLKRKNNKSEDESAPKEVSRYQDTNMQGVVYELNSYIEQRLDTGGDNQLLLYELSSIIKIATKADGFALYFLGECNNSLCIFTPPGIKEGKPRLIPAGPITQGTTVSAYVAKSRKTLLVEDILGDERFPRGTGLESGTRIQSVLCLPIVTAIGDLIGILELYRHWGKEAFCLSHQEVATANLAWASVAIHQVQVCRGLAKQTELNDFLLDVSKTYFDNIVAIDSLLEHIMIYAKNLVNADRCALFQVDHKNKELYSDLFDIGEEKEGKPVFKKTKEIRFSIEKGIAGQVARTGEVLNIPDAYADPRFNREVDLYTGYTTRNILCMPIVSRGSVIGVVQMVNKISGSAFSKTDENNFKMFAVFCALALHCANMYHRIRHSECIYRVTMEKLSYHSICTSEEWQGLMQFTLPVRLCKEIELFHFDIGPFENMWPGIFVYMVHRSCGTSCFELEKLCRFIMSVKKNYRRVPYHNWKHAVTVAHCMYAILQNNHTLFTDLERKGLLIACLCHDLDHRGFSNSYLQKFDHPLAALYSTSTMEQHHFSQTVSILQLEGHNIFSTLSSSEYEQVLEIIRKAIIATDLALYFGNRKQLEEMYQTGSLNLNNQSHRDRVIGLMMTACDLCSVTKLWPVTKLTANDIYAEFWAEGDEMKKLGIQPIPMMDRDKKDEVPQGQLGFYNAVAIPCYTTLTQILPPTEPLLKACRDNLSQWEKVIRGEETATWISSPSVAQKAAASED
T1 sequence (O00408 whole entry): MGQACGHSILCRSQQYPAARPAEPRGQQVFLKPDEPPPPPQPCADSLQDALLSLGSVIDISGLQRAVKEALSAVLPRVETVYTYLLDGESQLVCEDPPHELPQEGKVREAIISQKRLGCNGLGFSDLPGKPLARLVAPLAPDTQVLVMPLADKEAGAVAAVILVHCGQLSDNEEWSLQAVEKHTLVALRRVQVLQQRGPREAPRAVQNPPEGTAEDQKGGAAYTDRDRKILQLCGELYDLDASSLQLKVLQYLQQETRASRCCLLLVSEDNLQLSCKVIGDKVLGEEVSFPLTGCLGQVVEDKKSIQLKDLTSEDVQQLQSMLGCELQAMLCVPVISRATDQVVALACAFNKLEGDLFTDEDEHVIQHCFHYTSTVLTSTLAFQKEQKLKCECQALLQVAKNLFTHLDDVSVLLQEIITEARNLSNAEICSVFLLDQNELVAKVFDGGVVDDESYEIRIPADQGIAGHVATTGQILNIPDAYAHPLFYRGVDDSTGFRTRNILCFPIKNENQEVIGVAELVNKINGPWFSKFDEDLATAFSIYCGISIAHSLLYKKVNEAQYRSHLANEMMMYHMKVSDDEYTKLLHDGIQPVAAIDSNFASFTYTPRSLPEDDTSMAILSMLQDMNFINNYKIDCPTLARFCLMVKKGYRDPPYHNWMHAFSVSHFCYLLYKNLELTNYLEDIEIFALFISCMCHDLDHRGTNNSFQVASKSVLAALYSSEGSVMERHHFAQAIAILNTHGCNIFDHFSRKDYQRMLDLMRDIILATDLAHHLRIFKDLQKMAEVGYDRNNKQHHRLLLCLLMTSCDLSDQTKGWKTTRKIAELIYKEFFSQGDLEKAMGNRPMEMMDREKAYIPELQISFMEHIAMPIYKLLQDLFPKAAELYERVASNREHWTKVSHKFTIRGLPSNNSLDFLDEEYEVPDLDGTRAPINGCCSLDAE

In general, Emax refers to the size of the effect at its maximum, as opposed to the concentration needed. A word on the melting point: it is the temperature, or range, at which the solid turns liquid. `C[C@@H]1CCN(c2nccc3cccnc23)C[C@H]1c1cc(C(F)F)nc2ncnn12` [Compound 23] registered a melting point of 111.34 °C. Also, on hPDE2A, the IC50 is 74.1 nM and the Emax was 95%. Moreover, in the series on hPDE3B, the “hPDE3B Emax” value came to 54 and the “hPDE3B pIC50” value was under 5. Besides, at hPDE10A2, the IC50 was 661 nM and the Emax stood at 93%. Further, at PDE2A (setting [1]), the receptor occupancy at 10 mg/kg worked out at 5%.

Take `C[C@@H]1CCN(c2nccc3occc23)C[C@H]1c1cc(C(F)F)nc2ncnn12` [Compound 13]: the melting point amounted to 182.59 °C. For the same compound, on hPDE2A, the IC50 was 15.8 nM and the Emax is 98%. For the same compound, in the series with hPDE3B, the “hPDE3B Emax” value was 54 and the “hPDE3B pIC50” value is on record as 5.07. Also, at hPDE10A2, the IC50 was 457 nM and the Emax stood at 91%. The “PDE2 occupancy at 10 mg/kg” value at PDE2A (route SC (subcutaneous), 10 mg/kg, male Wistar rats, striatum, percentage occupancy) is 41 and 67.

By ED50 is commonly meant the midpoint of the dose-response relation. As to `C[C@@H]1CCN(c2nccc3ccc(Cl)cc23)C[C@H]1c1cc(C(F)F)nc2ncnn12` [Compound 4], the melting point came out at 135.42 °C. Besides, at hPDE2A (setting [2]), the IC50 was 3.39 nM. Moreover, the Emax at hPDE2A is 100%. In the series with hPDE3B, the “hPDE3B Emax” value is on record as 82 and the “hPDE3B pIC50” value amounted to 5.39. Also, on hPDE10A2, the IC50 is 347 nM and the Emax was 101%. Besides, the receptor occupancy at 10 mg/kg on PDE2A (setting [3]) stood at 93%. The ED50 at PDE2A (po) was 8.1 mg/kg.

Compound `C[C@@H]1CCN(c2cc(C#N)c3cc(Cl)ccc3n2)C[C@H]1c1cc(C(F)F)nc2ncnn12` [Compound 37] gave a melting point of 235.11 °C. The IC50 on hPDE2A (setting [2]) is 129 nM. In addition, at hPDE2A, the Emax is 102%. Also, in the series with hPDE3B, the “hPDE3B Emax” value stood at 70 and the “hPDE3B pIC50” value was 5.17. For the same compound, at hPDE10A2, the IC50 was 363 nM and the Emax worked out at 96%.

As to `Cc1cc(C(F)(F)F)cc(N2CC[C@@H](C)[C@H](c3cc(C(F)F)nc4ncnn34)C2)n1` [Compound 21], the melting point was found to be 124.81 °C. At hPDE2A, the IC50 is 61.7 nM and the Emax was found to be 101%. Also, in the series on hPDE3B, the “hPDE3B Emax” value turned out to be 93 and the “hPDE3B pIC50” value was 5.83. At hPDE10A2, the IC50 is 269 nM and the Emax is 95%. Besides, on PDE2A (route PO (oral), 10 mg/kg, male Wistar rats, striatum, percentage occupancy, read-out: PDE2 occupancy at 10 mg/kg), the receptor occupancy at 10 mg/kg worked out at 9%.

`C[C@H]1CCN(c2nccc3occc23)C[C@@H]1c1cc(C(F)F)nc2ncnn12` [Compound 30]: the melting point was determined as 184.03 °C. On hPDE2A, the IC50 was 8510 nM and the Emax came to 9%. Further, in the series with hPDE3B, the “hPDE3B Emax” value is on record as 53 and the “hPDE3B pIC50” value came out at 5.02. For the same compound, at hPDE10A2, the IC50 was over 10000 nM and the Emax was 41%.

`C[C@H]1CCN(c2nccc3ccc(Br)cc23)C[C@@H]1c1cc(C(F)F)nc2ncnn12` [Compound 29] had a melting point of 134.49 °C. Also, on hPDE2A, the IC50 is 2950 nM and the Emax is 8%. In the series with hPDE3B, the “hPDE3B Emax” value was found to be 99 and the “hPDE3B pIC50” value is given as 5.85. Moreover, on hPDE10A2, the IC50 is 2510 nM and the Emax was determined as 84%.

In turn, `C[C@@H]1CCN(c2nccc3cccc(F)c23)C[C@H]1c1cc(C(F)F)nc2ncnn12` [Compound 20] came in with a melting point of 179.73 °C. Also, at hPDE2A, the IC50 was 37.2 nM and the Emax worked out at 100%. In addition, in the series on hPDE3B, the “hPDE3B Emax” value worked out at 81 and the “hPDE3B pIC50” value worked out at 5.41. Moreover, at hPDE10A2, the IC50 is 269 nM and the Emax was determined as 97%. For the same compound, the receptor occupancy at 10 mg/kg on PDE2A (setting [3]) is 18%.

As for `C[C@@H]1CCN(c2cc(I)ccn2)C[C@H]1c1cc(C(F)F)nc2ncnn12` [Compound 16], on hPDE2A, the IC50 is 18.2 nM and the Emax came to 100%. Besides, in the series on hPDE3B, the “hPDE3B Emax” value is 95 and the “hPDE3B pIC50” value worked out at 6.19. Further, on hPDE10A2, the IC50 is 224 nM and the Emax was found to be 99%. On PDE2A (setting [1]), the receptor occupancy at 10 mg/kg was -14%.

For `C[C@@H]1CCN(c2ccccn2)C[C@H]1c1cc(C(F)F)nc2ncnn12.Cl` [Compound 32], at hPDE2A, the IC50 was 170 nM and the Emax is 86%. Further, in the series with hPDE3B, the “hPDE3B Emax” value was determined as 38 and the “hPDE3B pIC50” value was under 5. Also, on hPDE10A2, the IC50 was 1660 nM and the Emax is 87%. For the same compound, the receptor occupancy at 10 mg/kg at PDE2A (po, read-out: PDE2 occupancy at 10 mg/kg) was found to be 18%.

Consider `Cc1cc([C@@H]2CN(c3nccc4ccc(Cl)cc34)CC[C@H]2C)n2ncnc2n1` [Compound 3], for which, on hPDE2A, the IC50 is 3.02 nM and the Emax is 100%. In the series on hPDE3B, the “hPDE3B Emax” value was 88 and the “hPDE3B pIC50” value amounted to 5.49. On hPDE10A2, the IC50 was 83.2 nM and the Emax worked out at 100%. At PDE2A (setting [3]), the receptor occupancy at 10 mg/kg was found to be 90%. Also, at PDE2A (po), the ED50 worked out at 2.12 mg/kg. At PDE2A (route PO (oral), 10 mg/kg, male Wistar rats, striatum, percentage occupancy), the “PDE2 occupancy at 10 mg/kg” value was found to be 89.
